In patent US9394338B2, “Glutathione analogs and uses thereof” (REGENTS OF THE UNIVERSITY OF MINNESOTA, priority 2011, dated 2016):
Where two headings read alike, the source gives them in different places.

Assays:
[1] = test system: SH-SY-5Y cells; test: Determination of intracellular MG concentration after glucose treatment; type: cell-based, human; settings: 50 mM glucose three days, compound 500 μM
Method: Determination of Intracellular MG Concentration. SHSY5Y cells were seeded in a T150 flask and allowed to grow for 24 h. The next day, cells were treated with glucose (50 mM) in the presence and the absence of GSH or Ψ-GSH (500 μM). Cells without glucose treatment were used as a control. After 3 days of treatment, the cell pellet was collected and sonicated in 1 mL of PBS buffer to obtain cell lysates, which were derivatized as follows: 1 mL of cell lysate+0.2 mL 5 M HClO4+0.2 mL 10 mM 1,2 diaminobenzene+0.1 mL 1 μM 5-methylquinoxaline (internal std.)+0.5 mL water to 2 mL final volume. Samples were incubated at room temperature overnight and then centrifuged. The supernatant was passed through a C-18 SPE cartridge which had been prepared by flushing 2-4 mL of acetonitrile followed by 2-4 mL of 10 mM KH2PO4 (pH 2.4). After evaporation of the acetonitrile layer, the solid obtained was redissolved in 0.2 mL of 20% acetonitrile in 10 mM KH2PO4 (pH=2.4). The concentration of MG derivative, 2-methylquinoxaline, was measured using a Beckman Coulter Gold chromatography system. The column was Varian Microsorb-MV 300-5 25 cm C18 column (4.6 mm internal diameter and 5 μm particle diameter). The mobile phase was 80 vol % of 10 mM KH2PO4 and 20 vol % of HPLC grade acetonitrile. […]

[2] = test system: SH-SY-5Y cells; test: cells; type: cell-based; settings: for protection against Aβ toxicity: 10 μM, pretreatment 24 h; for protection against Aβ toxicity / length of cytoprotection against Aβ toxicity: 20 μM Aβ (1-42); for inhibition at 1000 µM: Homo sapiens, SH-SY5Y, SH-SY-5Y, compound 1 mM 24 h; for length of cytoprotection against Aβ toxicity: pretreatment of SH-SY-5Y cells
Method: (§1) Cytotoxicity Studies: Protection against β-amyloid 1-42 cytotoxicity in SH-SY-5Y cells was measured by standard MTT assays. SH-SY-5Y cells were seeded in 96-well plates at the density of 30,000 cells/well. After overnight incubation, the cells were exposed to GSH or Ψ-GSH at a concentration of 1 mM for 24 h at 37° C. After 24 h of incubation, the drug-containing medium was replaced with media containing 20 μM β-amyloid 1-42 peptide and the incubation was allowed to continue for additional 24 hours after the addition of the drugs. At the end of the incubation, 20 μL of MTT stock solution (5 mg/mL) was added to each well and incubated for 3 h at 37° C. The MTT reaction medium was discarded and the purple-blue MTT formazan crystals were dissolved by the addition of 100 μL of 0.1 N HCl in isopropanol. The optical density (OD), a reflection mitochondrial function of the viable cells, was read directly with a microplate reader (BioTek SynergyHT, VT, USA) at 580 nm and a reference wavelength of 680 nm. Concentration response graphs were generated for each drug using GraphPad Prism software (GraphPad Software, Inc., San Diego, Calif., USA). Results are expressed as mean percent inhibition of β-amyloid toxicity with the standard error of the mean. In another set of experiments, cells were preincubated with a glyoxalase I inhibitor, S-(p-bromobenzylglutathione) (1 mM) for 24 hours before addition of βamyloid1-42 peptide (20 μM).
as §1, with “Protection” for “Cytotoxicity Studies: Protection”, “against β-amyloid^1-42” for “against β-amyloid 1-42”, “cells/well. […]” for “cells/well. After overnight incubation, the cells were exposed to GSH or Ψ-GSH at a concentration of 1 mM for 24 h at 37° C.”, “μM β-amyloid^1-42” for “μM β-amyloid 1-42”, “20 μl,” for “20 μL”, “mean.” for “mean. In another set of experiments, cells were preincubated with a glyoxalase I inhibitor, S-(p-bromobenzylglutathione) (1 mM) for 24 hours before addition of βamyloid1-42 peptide (20 μM).”

[3] = test system: SH-SY-5Y cells; test: Protection against H2O2 cytotoxicity, MTT assay; type: cell-based, human; settings: preincubation 24 h, H2O2 50 μM 30 min
Method: Similar procedures were used for determining the protective effect of GSH and its analog against H2O2 cytotoxicity. After preincubation of cells with GSH or Ψ-GSH for 24 hours, cells were exposed to H2O2 (50 μM) for 30 min and the media was replaced with fresh media. Cells were incubated for an additional 24 h after which the cell viability was the determined by the MTT assay as described earlier.

[4] = test system: SH-SY-5Y cells; test: H2O2 and MG-induced cellular oxidative stress (DCFH-DA); type: cell-based, human; settings: for intracellular ROS after H2O2 exposure: H2O2 500 μM, co-incubation with 250 μM compound; for ROS generated by MG treatment: MG 1 mM, 180 min, 250 μM compound
Method: H2O2 and MG-Induced Cellular Oxidative Stress. SH-SY-5Y cells were cultured in 96-well black plates at the density of 10,000 cells/well and were allowed to reach confluence (˜48 h). The cells were then treated with a solution of 2,7-dichlorofluorescin diacetate (DCFH-DA, 20 μM) in RPMI 1640 medium without FBS for 45 min. Extracellular DCFH-DA was removed by washing twice with PBS. To induce oxidative stress, the cells were treated with hydrogen peroxide (500 μM) or methylglyoxal (1 mM) in RPMI media without FBS in presence and absence of GSH or Ψ-GSH (250 μM) for 90 min or 180 min at 37° C. in the dark. The cells were washed with PBS and then lysed by adding 250 μl of 90% DMSO/10% PBS for 10 min in the dark at room temperature with shaking. The fluorescence intensity in each well was measured in the fluorescence plate reader (BioTek SynergyHT, VT, USA) at an excitation of 485 nm and an emission of 538 nm and normalized to the protein content in each well as determined by the BCA assay. (Wang et al., Free Radic. Res. 2008, 42, 435-441)

[5] = then 20 μM Aβ1-42 24 h, read-out: % Inhibition of Cell Growth with Aβ1-42
[6] = without Aβ1-42, read-out: % Inhibition of Cell Growth without Aβ1-42

Row | Compound | glucose-induced intracellular MG accumulation [1] | protection against Aβ toxicity [2] | inhibition at 1000 µM [2, 5] | inhibition at 1000 µM [2, 6] | length of cytoprotection against Aβ toxicity [2] | protection against peroxide cytotoxicity [3] | intracellular ROS after H2O2 exposure [4] | ROS generated by MG treatment [4]
1 | N[C@@H](CCC(=O)N[C@@H](CS)C(=O)NCC(=O)O)C(=O)O [GSH, Glutathione] | prevented glucose-induced intracellular MG accumulation | fully protected the cells | 12% | 0% | significant only until day 3 | dose-dependent protection | reduction in ROS to the levels in control cells | neutralized effectively
2 | N[C@@H](CNC(=O)N[C@@H](CS)C(=O)NCC(=O)O)C(=O)O [Ψ-GSH, γ-Gla-Cys-Gly-OH] | prevented glucose-induced intracellular MG accumulation | fully protected the cells | 4% | 0% | five days | dose-dependent protection | reduction in ROS to the levels in control cells | neutralized effectively
